# According to paper PMC12567141, “Design, Synthesis and Biological Evaluation of Pyrazolopyrimidine Derivatives as Aryl Hydrocarbon Receptor Antagonists for Colorectal Cancer Immunotherapy” (Pharmaceutics, 2025):
# What was measured:
# MC38/Luc cells = experiment: Cytotoxic T lymphocyte (CTL) assay; assay type: cell-based; conditions: splenocytes of treated tumour-bearing mice, effector:target 10:1, luciferase activity
# Experimental: Splenocytes were collected from tumour-bearing mice and stimulated with a cell activation cocktail (BioLegend) for 6 h. MC38/Luc cells as target cells were seeded in black, clear-bottomed 96-well plates (1 × 10^4 cells). After overnight incubation, splenocytes as effectors were added into wells containing target cells at an effector to target ratio of 10:1. LLC/Luc and CT26/Luc cells were used as negative target cells. Eleven hours later, luciferase activity was measured with an IVIS Lumina III instrument (PerkinElmer, Waltham, MA, USA).
# MC38 tumor = experiment: In vivo therapy, MC38 syngeneic model; parameters: species or system mice
# Experimental: In vivo experiments were conducted using 6-week-old male immunocompetent BALB/c and C57BL/6 with 18–20 g body weight (Orient Bio Inc., Seungnam, Republic of Korea). All animal experimental procedures were maintained and used in accordance with the Guidelines for the Care and Use of Laboratory Animals of the Institute of Laboratory Animal Center, Daegu-Gyeongbuk Medical Innovation Foundation (K-MEDI hub). The animal studies were conducted after approval by the institutional reviewer board on the Ethics of Animal Experiments of the Daegu-Gyeongbuk Medical Innovation Foundation (approval number: KMEDI-24041103-01).
# Study 1: Antitumor activity of 7k alone in mice with either CT26 syngeneic model or MC38 syngeneic model. Mice were subcutaneously challenged with 5 × 10^5 either MC38 or CT26 cells. […]
# The 7k was dissolved in solution including 5% DMSO, 55% DW, and 40% PEG. Tumor size was measured with a caliper at the indicated time points, and tumor volume (mm^3) was calculated using the following formula, tumor volume (mm^3) = d2 × D/2, where d and D are the shortest and longest diameters in mm, respectively.
# [1] = test system: p53/p21/caspase-3 signaling pathway in MC38 and CT26 cells; experiment: Western blot of apoptosis-regulating proteins; assay type: cell-based; conditions: 24 h
# Experimental: For the extraction of total protein, cells were treated with 7k for 24 h in a CO2 incubator at 37 °C and washed twice with phosphate-buffered saline (PBS). Cell pellets were lysed using radioimmunoprecipitation assay (RIPA) buffer (Thermo Fisher Scientific) containing a protease and phosphatase inhibitor cocktail kit (Thermo Fisher Scientific). The lysed cells were briefly vortexed at intervals and subsequently centrifuged at 13,000× g at 4 °C. The protein sample was quantified with the bicinchoninic acid (BCA) protein assay kit (Thermo Fisher Scientific).
# Equal amounts of proteins were loaded onto 10% sodium dodecyl sulfate polyacrylamide gel electrophoresis and transferred onto PVDF membranes (Millipore, Billerica, MA, USA). The membrane was blocked with 5% skim milk in Tris-buffered saline (TBS) containing Tween-20 (TBS-T) for an hour and probed with the respective primary antibodies in 5% BSA overnight at 4 °C. Following incubation, the membrane was probed with horseradish peroxidase (HRP)-conjugated secondary antibodies for an hour at room temperature. The membrane was washed three times with TBS-T and the signal was visualized using an enhanced chemiluminescence (ECL) detection reagent (GE Healthcare Life Sciences, Pittsburgh, PA, USA).
# The primary antibodies used were as follows: Total p53 (Santa Cruz Biotechnology, Dallas, TX, USA, working dilution 1:500), PARP (CST, Danvers, MA, USA; working dilution 1:1000), cleaved caspase3 (CST, MA, USA; working dilution 1:1000), p21 (CST, MA, USA; working dilution 1:1000), Bcl-2 (CST, MA, USA; working dilution 1:1000), AhR (Santa Cruz; working dilution 1:500), LaminB1 (CST, MA, USA; working dilution 1:2000), GAPDH (Abcam, Cambridge, UK; working dilution 1:5000) and β-actin (CST, MA, USA; dilution 1:5000). HRP-conjugated secondary antibodies used were as follows: anti-mouse (CST, MA, USA) and anti-rabbit (CST, MA, USA).
# MC38 and CT26 cells = experiment: Cell-cycle analysis by flow cytometry; assay type: cell-based; conditions: 24 h treatment
# Experimental: Washed and fixed cells were stained in the dark with 0.5 mL propidium iodide/RNase staining buffer for 15 min at room temperature. DNA content, cell-cycle profiles, and forward scatter were analyzed using a Becton Dickinson LSRFortessa^TM (BD Diagnostics, San Jose, CA, USA) with emission detection at 488 nm (excitation) and 575 nm (peak emission). Data were analyzed using FlowJo (BD biosciences, San Jose, CA. USA).
# HCT-116 cells = experiment: Clonogenic assay; assay type: cell-based; conditions: colorectal cancer cells vs vehicle-treated cells
# Experimental: Cells were plated into 6-well plates and left for 48 h. After treatment with 5, 10 μM 7k for 24 h, the drug-containing medium was discarded, and cells were washed twice with PBS and left in complete culture medium for the time corresponding to six doublings. Finally, cells were fixed in 4% Paraformaldehyde (PFA) solution and stained with 0.05% crystal violet.
# [2] = test system: CD8+ IFNγ + T lymphocytes; experiment: Flow cytometry of CD8+ IFNγ+ T lymphocytes in splenocytes of tumour-bearing mice; assay type: in vivo; conditions: vs vehicle or single therapy
# Experimental: For analysis of CD8+ IFNγ + T lymphocytes, splenocytes were collected from tumour-bearing mice and stimulated with a cell activation cocktail (BioLegend, San Diego, CA, USA) in the presence of Brefeldin A for 6 h. Splenocytes were stained with APC-conjugated CD8 and APC-Cy7-conjugated IFNγ Ab at 4 °C for 30 min (BioLegend). After washing with FACS buffer (Biolegend) three times, the cells were analysed using Becton Dickinson LSRFortessa^TM and analyzed with FlowJo software. Isotype-matched monoclonal antibodies were used as controls. The data were analysed using Flowjo analysis software v11. (Flowjo LLC, Ashland, OR, USA).
# [3] = Pharmacokinetic study in mouse; assay type: in vivo, ICR mice; conditions: male, ICR, plasma
# Experimental: To estimate the pharmacokinetic parameters in animals, the drug was administered via intravenous (I.V., 5 mg/kg) and oral (P.O., 10 mg/kg) routes in seven-week-old male ICR mice (Orient Bio Inc., Seongnam, Korea). Blood samples were collected at 0.083 (for I.V.), 0.5, 1, 2, 4, 8, and 24 h after drug administrations and then immediately centrifuged at 10,000× g for 3 min. The plasma concentrations of the drug were determined via LC-MS/MS. The plasma concentration–time profiles and pharmacokinetic parameters were estimated using the non-compartmental method with the nonlinear least squares regression program WinNonlin 5.3 (Pharsight, Mountain View, CA, USA).
smiles,measurement,setting,value
"CC(C)n1cc2nc(-c3cc(F)cc(F)c3)nc(NCCc3c[nH]c4ccccc34)c2n1 [Compound 7k, N-(2-(1H-indol-3-yl)ethyl)-5-(3,5-difluorophenyl)-2-isopropyl-2H-pyrazolo [4,3-d]pyrimidin-7-amine]",CTL-mediated killing activity against MC38-luc cells,MC38/Luc cells,minimal killing activity
same,tumor growth inhibition (TGI),"MC38 tumor; MC38 model, combination study, 7k oral daily 20 days, anti-PD1 i.p. every three days four times",45%
same,tumor growth inhibition (TGI),"MC38 tumor; MC38 model, comparison of 7k and 3′,4′-dimethoxyflavone, 10 mg/kg oral once a day, 18 days",51%
same,tumor weight,"MC38 tumor; MC38 tumor bearing mice, vs vehicle-treated mice (Figure S5)",significantly lower
same,tumor growth inhibition (TGI),"MC38 tumor; MC38 tumor-bearing mice, single agent, 10 mg/kg oral once a day for 14 days",49%
same,Bcl-2 expression,[1],downregulation of Bcl-2
same,cleaved poly (ADP-ribose) polymerase and cleaved caspase 3,[1],upregulation of cleaved poly (ADP-ribose) polymerase and cleaved caspase 3
same,p21 expression,[1],increase in p21
same,p53 expression,[1],upregulation of p53
same,sub-G1 fraction,MC38 and CT26 cells,dose-dependent increase in the sub-G1 fraction
same,colony formation ability,HCT-116 cells,significant decrease in the colony formation ability
same,levels of CD8+ IFNγ T lymphocytes,[2],increased the levels of CD8+ IFNγ T lymphocytes
same,AUC(0-inf),"[3]; IV, 5 mg/kg",5860 ng·h/mL
same,AUC(0-t),"[3]; IV, 5 mg/kg",5750 ± 740 ng·h/mL
same,clearance,"[3]; IV, 5 mg/kg",14.3 mL/min/kg
same,half-life,"[3]; IV, 5 mg/kg",4.54 h
same,Vd,"[3]; IV, 5 mg/kg, read-out: Vss (converted)",3.91 L/kg
same,AUC(0-inf),"[3]; PO, 10 mg/kg",8230 ng·h/mL
same,AUC(0-t),"[3]; PO, 10 mg/kg",8160 ± 3670 ng·h/mL
same,Cmax,"[3]; PO, 10 mg/kg",2380 ng/mL
same,Tmax,"[3]; PO, 10 mg/kg",0.67 ± 0.29 h
same,half-life,"[3]; PO, 10 mg/kg",3.77 h
same,bioavailability,"[3]; PO, 10 mg/kg, read-out: Ft (%) bioavailability (converted)",71%
